Assays:
MCF-7 cells = assay: MCF-7 cell proliferation inhibition assay (CTG); type: cell-based; details: Homo sapiens
Procedure: (4) MCF-7, T-47D, and CAMA-1 Cell Proliferation Inhibition Assay
The inhibitory effect of the test compound of formula (I) on the proliferation of MCF-7, CAMA-1, and T-47D cells was analyzed. For MCF-7 cells, ten concentration gradients ranging from 100 nM to 0.0003815 nM were tested, with three replicates for each concentration. For CAMA-1 cells, nine concentration gradients ranging from 100 nM to 0.001526 nM were tested, also with three replicates for each concentration. For T-47D cells, nine concentration gradients ranging from 2 μM to 0.00512 nM were tested, with three replicates for each concentration. Each experiment was conducted twice independently.
MCF-7 cells that reached 80% cell fusion were digested using trypsin, centrifuged, resuspended, and counted. Cell suspensions were prepared using the corresponding culture medium, and 45 μL of the suspension was added to each well of a 384-well plate. The plate was then incubated at 37° C. in a cell incubator with 5% CO2. The test compound of formula (I) was dissolved in DMSO to an initial concentration of 20 μM and subjected to a 4-fold serial dilution to achieve ten different concentrations. After overnight incubation, the diluted compound was further diluted with the corresponding cell culture medium. The resulting mixture was transferred to the respective wells of the cell plate, starting with a final concentration of 100 nM, followed by a 4-fold serial dilution to achieve ten concentrations. The positive control wells contained 2 μM fulvestrant. The plate was mixed, centrifuged, and incubated at 37° C. in a cell incubator with 5% CO2 for the specified number of days according to the above table.
After incubation for the specified time, the cell culture plate was removed, and the CTG reagent was added. The plate was thoroughly mixed, centrifuged, and incubated at room temperature for 10 minutes. The readings were taken using the Envision multi-label analyzer. Data analysis:
Positive control: cells treated with 2 μM fulvestrant; negative control: cells treated with 0.5% DMSO. […]

HCC1428 cells = assay: HCC1428 cell proliferation inhibition assay (CTG); type: cell-based; details: Homo sapiens, HCC1428, 168 h, 7 days
Procedure: (5) HCC1428 and MDA-MB-134VI Cell Proliferation Inhibition Assay
The initial concentration of the compound of formula (I) was set at 200 nM, followed by 4-fold serial dilutions to achieve ten concentration gradients.
• 1) HCC1428 cells were cultured in RPMI 1640 complete growth medium containing 10% FBS and 1% PenStrep. • 2) When the cells in a T75 culture flask reached 80-90% cell fusion, they were digested with trypsin and collected. The cell passages used were the seventh generation for the first independent experiment and the thirteenth generation for the second independent experiment. • 3) The cells were centrifuged at 1000 rpm, resuspended in complete medium, and counted. The cell densities were 1.30×10^6 cells/mL for the first experiment and 9.50×10^5 cells/mL for the second experiment, with viability both exceeding 95%. • 4) Cell suspensions were prepared in complete medium at a density of 1.25×10^4 cells/mL for both experiments. […] 100 μL of CellTiter-Glo® reagent was added to each well. The plate was incubated at room temperature in the dark for 30 minutes. • 8) Luminescence values were read using a BMG plate reader.
The IC50 (half-maximal inhibitory concentration) of the compound was obtained using the following nonlinear fitting formula: […]

CYP1A2 = molecular target: T1, CYP1A2 (Homo sapiens, UniProt P05177); assay: Inhibition of cytochrome P450 isozymes in human liver microsomes, CYP1A2; type: in vitro ADME; details: phenacetin substrate
T1 sequence (P05177 1-516): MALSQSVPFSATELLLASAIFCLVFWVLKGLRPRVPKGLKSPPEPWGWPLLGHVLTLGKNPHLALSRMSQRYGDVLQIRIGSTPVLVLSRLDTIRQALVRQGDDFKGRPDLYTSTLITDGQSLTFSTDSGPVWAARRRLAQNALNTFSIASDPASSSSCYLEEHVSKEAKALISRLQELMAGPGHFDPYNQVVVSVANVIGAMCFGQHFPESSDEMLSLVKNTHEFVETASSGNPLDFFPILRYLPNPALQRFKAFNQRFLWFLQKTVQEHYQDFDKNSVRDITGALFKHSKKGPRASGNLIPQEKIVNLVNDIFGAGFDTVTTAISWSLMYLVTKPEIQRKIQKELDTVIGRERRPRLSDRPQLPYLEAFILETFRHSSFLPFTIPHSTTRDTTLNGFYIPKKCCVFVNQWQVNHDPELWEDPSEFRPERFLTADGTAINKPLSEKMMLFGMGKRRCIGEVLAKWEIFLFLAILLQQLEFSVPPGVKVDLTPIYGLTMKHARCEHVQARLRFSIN
Procedure: (1) Study on the Inhibition of Cytochrome P450 Isozymes
The probe substrate, test compound, human liver microsomes, and cofactors were incubated together. The concentration of the metabolic product of the probe substrate was detected using LC-MS/MS to calculate the IC50 values. In the vehicle control samples, the test compound was replaced with an equal volume of vehicle, and the enzyme activity of the vehicle control samples was set as 100%. […]
Upon reaching the respective reaction times for the incubation systems of the various isoenzymes, 200 μL of termination solution containing the appropriate internal standard was added to the reaction plate to terminate the reaction. […] The metabolites of the probe substrates were then analyzed using LC-MS/MS. […]
The activity of various CYP isoenzymes was reflected by the production rate of metabolites from each probe substrate. […] The residual activity percentage of each isoenzyme was determined by comparing the metabolite production rate of the probe substrate in the presence of different concentrations of the test compound or positive inhibitor to that of the vehicle control samples, then multiplying by 100%. […]

FCCCN1CC[C@H](Nc2cnc(C3=C(CC(F)(F)F)CCCc4c3ccc3[nH]nc(F)c43)cn2)C1 [Compound of formula (I)]
IC50 (MCF-7 cells; MCF7, First experiment): 0.19 nM | IC50 (MCF-7 cells; MCF7, Mean ± SD): 0.18 ± 0.013 nM | IC50 (MCF-7 cells; MCF7, Second experiment): 0.16 nM | IC50 (HCC1428 cells; First experiment): 0.49 nM | IC50 (HCC1428 cells; Mean ± SD): 1.55 ± 0.99 nM | IC50 (HCC1428 cells; Second experiment): 1.34 nM | IC50 (CYP1A2): 97200 nM

— US12410155B2, “Salt form and crystal form of tetrahydrocyclohepta indazole compound” (Zhejiang Yangli Pharmaceutical Technology Co., Ltd., priority 2021, dated 2025)
